The record followed here is ChEMBL document CHEMBL1201862, “PubChem BioAssay data set” (2004).

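Test compounds were applied to cells in 96-well plates for 48 hours at 5 doses. GI50 = concentration required for 50% inhibition of growth.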 Active and inactive are the calls of the source. No stated cut-off is given here; in the data, active = GI50 up to about 1.1 µM and inactive = higher.

Among the test systems are HOP-18; SNB-78; DMS-114; KM-20L2; XF498; DLD-1; DMS-273; LXFL 529; RXF 631.
Experiment in all cases: NCI anticancer screen, dose series, 48 h

Regarding `CN1CCN(c2ccc3[nH]c(-c4ccc5[nH]c(-c6ccc(O)cc6)nc5c4)nc3c2)CC1`, the GI50 is 209 µM (inactive) in the test with HOP-18; 265 µM (inactive) in the test with SNB-78; 38.5 µM (inactive) in the test with DMS-114; 158 µM (inactive) with KM-20L2; 34.4 µM (inactive) in the test with XF498; 178 µM (inactive) in the test with DLD-1. Moreover, in the test on DMS-273, the GI50 was 21.6 µM (inactive).
In the case of `Cc1c(CNc2ccc(Cl)c(C(=O)NC(CC(=O)O)C(=O)O)c2)ccc2nc(N)nc(N)c12` (configuration not stated), the GI50 was > 54.8 µM (inactive) in the test with HOP-18; > 100 µM (inactive) with SNB-78; 0.038 µM (active) in the test with DMS-114; 0.665 µM (active) with KM-20L2; > 100 µM (inactive) with XF498; 0.0631 µM (active) with DLD-1. Besides, in the test on DMS-273, the GI50 was 0.0617 µM (active).
With `CC(C)S(=O)(=O)ON1C(=O)c2ccc(N(C)C)cc2C1=O`, the GI50 was 13.5 µM (inactive) with HOP-18; 31.3 µM (inactive) in the test on SNB-78; 9.91 µM (inactive) in the test on LXFL 529; 20.4 µM (inactive) in the test with KM-20L2; 13.2 µM (inactive) with RXF 631; 17.7 µM (inactive) with XF498. In addition, in the test with DMS-273, the GI50 was 19.8 µM (inactive).
For the compound `C=C1C(=O)OC2C1CCC(C)C1C=CC(=O)C12C` (configuration not stated), the GI50 in the test with HOP-18 is 6.65 µM (inactive); in the test with SNB-78 it was 3.14 µM (inactive); in the test with LXFL 529, 1.58 µM (inactive); in the test with KM-20L2, 3.61 µM (inactive); in the test with XF498 it was 3.29 µM (inactive); in the test with DLD-1, 1.89 µM (inactive). Moreover, the GI50 in the test with DMS-273 is 4.08 µM (inactive).
With `CCOC(=O)C(/C(=N\NC(=O)OC)C(=O)Nc1cc(OC)ccc1OC)c1cnc2ccccc2n1` (configuration not stated), the GI50 is 85.9 µM (inactive) with HOP-18; > 100 µM (inactive) with SNB-78; > 100 µM (inactive) in the test on LXFL 529; > 100 µM (inactive) with DMS-114; > 100 µM (inactive) with XF498; > 100 µM (inactive) in the test on DLD-1.
With `CCCCCCCCCOC(=S)NC`, the GI50 is 19.6 µM (inactive) with HOP-18; 17.8 µM (inactive) with LXFL 529; 18 µM (inactive) in the test on KM-20L2; 21 µM (inactive) with RXF 631; 18.2 µM (inactive) in the test on XF498; 16.6 µM (inactive) in the test on DLD-1. Also, the GI50 with DMS-273 was 18.3 µM (inactive).
As to `NNC(=O)CCC(=O)Nc1ccc(Cl)cc1Cl`, the GI50 with SNB-78 is > 100 µM (inactive); in the test on LXFL 529 it was 29.7 µM (inactive); in the test with DMS-114, > 100 µM (inactive); in the test on KM-20L2, > 100 µM (inactive); in the test with RXF 631, > 100 µM (inactive); in the test with XF498, > 100 µM (inactive). In addition, the GI50 in the test with DLD-1 was > 100 µM (inactive); in the test with DMS-273 it was 31.8 µM (inactive).
Turning to `O=[N+]([O-])c1cccc(/C=N\NS(=O)(=O)c2ccc(Cl)cc2)c1O`, the GI50 is 37.1 µM (inactive) in the test on HOP-18; > 100 µM (inactive) with SNB-78; 83.6 µM (inactive) in the test with LXFL 529; > 100 µM (inactive) in the test on KM-20L2; > 100 µM (inactive) with RXF 631; 55.5 µM (inactive) in the test with DLD-1. Moreover, the GI50 with DMS-273 was > 100 µM (inactive).
For the compound `O=C(c1ccccc1)[C@H]1Nc2cnccc2C2c3ccccc3CC21` (some centres not stated), the GI50 in the test on HOP-18 is 5.6 µM (inactive); in the test on SNB-78, 15.5 µM (inactive); in the test on LXFL 529, 4.38 µM (inactive); in the test on DMS-114 it was 10 µM (inactive); in the test on KM-20L2, 21.2 µM (inactive); in the test with RXF 631, 19.9 µM (inactive). The GI50 in the test on XF498 was 23.7 µM (inactive); in the test on DLD-1, 7.01 µM (inactive); with DMS-273 it was 26.6 µM (inactive).
As to `CN1C(c2ccccc2)CC(C)(O)CC1c1ccccc1` (configuration not stated), the GI50 in the test on SNB-78, in the test with LXFL 529, with DMS-114, in the test on KM-20L2, with RXF 631 and with DLD-1 was > 100 µM (inactive) each time. For the same compound, in the test with DMS-273, the GI50 was > 100 µM (inactive).
For the compound `CC(=O)OC(OC(C)=O)c1ncccc1C(=O)OC(C)C`, the GI50 in the test with HOP-18 was > 100 µM (inactive); with SNB-78, > 100 µM (inactive); in the test on LXFL 529, 78.5 µM (inactive); in the test with DMS-114, > 100 µM (inactive); with KM-20L2 it was 39.6 µM (inactive); with XF498 it was > 100 µM (inactive). For the same compound, the GI50 with DLD-1 was 31.2 µM (inactive); with DMS-273, 31.3 µM (inactive).
`CN(C)C1=NC2=S(SC(Nc3ccccc3)=N2)S1` (configuration not stated): the GI50 is 25 µM (inactive) in the test on HOP-18; 34.4 µM (inactive) with SNB-78; 10 µM (inactive) with LXFL 529; 3.47 µM (inactive) in the test on DMS-114; 32.9 µM (inactive) in the test with KM-20L2; > 100 µM (inactive) in the test with RXF 631. Besides, the results for the GI50 with XF498, with DLD-1 and in the test with DMS-273 were 14 µM (inactive), 27.2 µM (inactive) and 14.8 µM (inactive), respectively.
Take `O=C(Nc1cc(Cl)ccc1Cl)c1cc2cccc(Br)c2oc1=O`: the GI50 is > 100 µM (inactive) in the test with HOP-18; > 100 µM (inactive) in the test with DMS-114; > 100 µM (inactive) in the test with KM-20L2; 21.9 µM (inactive) in the test on XF498; > 100 µM (inactive) with DLD-1; > 100 µM (inactive) in the test on DMS-273.
As for `CCCCCC(=O)OC[n+]1ccc2c(C)c3[nH]c4ccc(OC)cc4c3c(C)c2c1`, the GI50 in the test on SNB-78 is 0.449 µM (active); in the test on LXFL 529, 0.366 µM (active); in the test on DMS-114 it was 0.628 µM (active); in the test with KM-20L2, > 100 µM (inactive); in the test with RXF 631 it was 0.429 µM (active); in the test with DLD-1 it was 0.137 µM (active). The GI50 in the test with DMS-273 was 0.0341 µM (active).
In the case of `CCCCNC(=S)OCCC(C)CCCC(C)C` (configuration not stated), the GI50 in the test with HOP-18, with SNB-78, in the test with LXFL 529, with DMS-114, in the test with KM-20L2 and in the test with XF498 was > 100 µM (inactive) in each case. For the same compound, the GI50 with DLD-1 and in the test with DMS-273 was > 100 µM (inactive) throughout.
In the case of `CCN(CC)CC(=O)NC1c2ccccc2Oc2ccccc21`, the GI50 in the test on SNB-78, with LXFL 529, with DMS-114, in the test on KM-20L2, in the test with XF498 and in the test with DLD-1 was > 100 µM (inactive) in each case. Also, in the test with DMS-273, the GI50 is > 100 µM (inactive).
Take `O=C(CCC/C(CC(=O)c1ccc(Br)cc1)=N\O)Nc1ccccc1`: the GI50 in the test with HOP-18 was > 100 µM (inactive); in the test with SNB-78 it was > 100 µM (inactive); in the test with LXFL 529 it was > 100 µM (inactive); in the test with DMS-114, 25.5 µM (inactive); with KM-20L2, 91.4 µM (inactive); in the test on XF498 it was > 100 µM (inactive). The GI50 in the test on DLD-1 was 96.4 µM (inactive).
Take `CC1CCC2c3c([nH]c4ccccc34)C3C(=O)N(c4ccccc4)C(=O)C3C2C1` (configuration not stated): the GI50 is 18.9 µM (inactive) in the test on HOP-18; 10.6 µM (inactive) in the test with SNB-78; > 250 µM (inactive) in the test with LXFL 529; 45.5 µM (inactive) with DMS-114; > 250 µM (inactive) in the test with KM-20L2; 89.1 µM (inactive) with RXF 631. Besides, the GI50 in the test with XF498 is 1.82 µM (inactive); in the test with DLD-1 it was > 250 µM (inactive); with DMS-273, 40.6 µM (inactive).
On to `C/C(CC(=O)Nc1cccc([N+](=O)[O-])c1)=N\NC(=O)C[n+]1ccccc1`, for which the GI50 with SNB-78, in the test with LXFL 529, with DMS-114, in the test with KM-20L2, in the test on XF498 and in the test with DLD-1 was > 100 µM (inactive) in each case.
Regarding `C/C(=N\N(C)C)c1sc(-n2nc(-c3ccccc3)cc2-c2ccccc2)nc1C`, the GI50 in the test with HOP-18 was > 100 µM (inactive); in the test with SNB-78 it was > 100 µM (inactive); with LXFL 529, > 100 µM (inactive); in the test on DMS-114, 72.6 µM (inactive); in the test with KM-20L2 it was > 100 µM (inactive); in the test with RXF 631, 43.9 µM (inactive). Also, the GI50 in the test with XF498, in the test on DLD-1 and with DMS-273 was > 100 µM (inactive) throughout.
Consider `CC(=O)Nc1ccc(/C=C/C(=O)c2sc(-c3cccnc3)nc2C)cc1`, for which the GI50 in the test with HOP-18, in the test with SNB-78, in the test with DMS-114, with KM-20L2, with DLD-1 and in the test with DMS-273 was > 100 µM (inactive) each time.
For the compound `CSc1cccc(-n2c3nc(=O)n(C)c(=O)c-3nc3ccccc32)c1`, the GI50 with HOP-18 is 13.2 µM (inactive); in the test with SNB-78, 19.4 µM (inactive); in the test with LXFL 529, 13.3 µM (inactive); in the test with DMS-114, 3.27 µM (inactive); in the test on KM-20L2 it was 3.54 µM (inactive); in the test on XF498, 3.51 µM (inactive). Moreover, the GI50 with DLD-1 was 14 µM (inactive); with DMS-273, 1.66 µM (inactive).
